Data set [1] concerns HeLa MCTS. Nature of the data set: 3D MCTS growth inhibition assay. It counts as cell-based, human. Conditions: dark; 1–7 and H2TPP 20 μM, cisplatin 10 μM and 30 μM. Here is the method:
MCTS were treated with the sample (20 μM 1–7, 20 μM tetraphenylporphyrin H2TPP, 10 μM cisplatin, 30 μM cisplatin, 2% DMSO, v%) by replacing 50% of the media with drug supplemented media in the dark for 3 days. After this time, the MCTS were exposed to a 1-Photon (500 nm, 16.7 min, 10.0 mW cm^−2, and 10 J cm^−2) irradiation using a LED light source or 2-Photon (800 nm, 10 J cm^−2 with a section interval of 5 μm) irradiation using a LSM 880 (Carl Zeiss) laser scanning confocal microscope equipped with a Coherent Chameleon 2-Photon laser. The cell culture media was replaced every 2 days. The integrity and diameter of the MCTs was monitored with an Axio Observer Z1 (Carl Zeiss) phase contrast microscope every 24 h.

Data set [2] deals with HeLa MCTS. Nature of the data set: (Photo-)cytotoxicity on 3D MCTS (ATP concentration). Format: cell-based, human. Conditions: 1-3 as chloride salts. On the procedure:
The cytotoxicity of the compounds in 3D MCTS was assessed by measurement of the ATP concentration. MCTS were treated with increasing concentrations of the compound (2% DMSO, v%) by replacing 50% of the media with drug supplemented media and incubation for 12 h. After this time, the MCTS were divided in three identical groups. The first group was strictly kept in the dark. The second group was exposed to a 1-Photon irradiation (500 nm, 16.7 min, 10.0 mW cm^−2, and 10 J cm^−2) using a LED light source and the third group was exposed to a 2-Photon irradiation (800 nm, 10 J cm^−2 with a section interval of 5 μm) using a LSM 880 (Carl Zeiss, Germany) laser scanning confocal microscope equipped with a Coherent Chameleon 2-Photon laser. After the irradiation, all groups were incubated additional 48 h. The ATP concertation was measured using a CellTiter-Glo 3D Cell Viability kit (Promega) by measuring the generated chemiluminescence with an infinite M200 PRO (Tecan) plate reader.

The nature of data set [3]: Photostability (absorption spectra upon irradiation). It counts as physicochemical. Conditions: 450 nm, 0 to 10 min (13.2 J cm^−2), air-saturated acetonitrile. On the procedure: The sample was prepared in an air-saturated acetonitrile solution. Using a Atlas Photonics LUMOS BIO irradiator, the sample was constantly irradiated at 450 nm in time intervals from 0 to 10 min (13.2 J cm^−2). The absorption spectra from 350 to 700 nm was monitored with a SpectraMax M2 Microplate Reader (Molecular Devices) at each time interval. As positive and negative controls, respectively, [Ru(2,2′-bipyridine)3]Cl2 and Protoporphyrin IX were used.

In data set [4] the test system is human cervical carcinoma (HeLa) cells. Nature of the data set: (Photo-)cytotoxicity on 2D cell monolayers, HeLa. It counts as cell-based. Conditions: for IC50: 1-3 as chloride salts.
Procedure: (§1) A total of 4 × 10^3 cells were seeded on 96-well plates and allowed to adhere overnight. The cells were treated with increasing concentrations of the sample diluted in cell media achieving a total volume of 200 μL. The cells were incubated with the sample for 8 h and, after this time, the medium refreshed. To study the phototoxic effect of the sample, the cells were exposed to 480 nm (spectral half-width: 20 nm, 10 min, 5.2 mW cm^−2, 3.1 J cm^−2) or 540 nm (spectral half-width: 30 nm, 40 min, 4.0 mW cm^−2, 9.5 J cm^−2) light using an Atlas Photonics LUMOS BIO irradiator. To study the dark cytotoxicity of the sample, the cells were not irradiated and the medium exchanged. The cells were grown for an additional 40 h at 37 °C. After this time, the medium was replaced with fresh medium containing resazurin with a final concentration of 0.2 mg mL^−1. The cells were incubated for 4 h and the amount of the fluorescent product resorufin determined (λex = 540 nm, λem = 590 nm) with a SpectraMax M2 Microplate Reader (Molecular Devices). The obtained data was analyzed with the GraphPad Prism software.
For data set [5], the system named is noncancerous retinal pigment epithelium (RPE-1) cells.
Procedure: as §1
Data set [6] deals with mouse colon carcinoma (CT-26) cells.
Procedure: as §1
The test system of data set [7] is human glioblastoma astrocytoma (U373) cells.
Procedure: as §1
Data set [8] shares this test system. Kind of data set: (Photo-)cytotoxicity on 2D cell monolayers, U373.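 Note: Resazurin-to-resorufin fluorescence viability readout, 8 h compound exposure then medium change, light dose 3.1 J cm^−2 at 480 nm or 9.5 J cm^−2 at 540 nm, analysed 40 h later.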
Procedure: as §1
Data set [9] deals with noncancerous retinal pigment epithelium (RPE-1) cells. Nature of the data set: (Photo-)cytotoxicity on 2D cell monolayers, RPE-1.
Procedure: as §1
Data set [10] has as its system mouse colon carcinoma (CT-26) cells. Nature of the data set: (Photo-)cytotoxicity on 2D cell monolayers, CT-26.
Procedure: as §1
On the set-up of data set [11]: method as in PMID 10907495. The conditions noted are these: cited from earlier work.
Details of data set [12]: method as in earlier work. Conditions: acetonitrile; cited from earlier work.
The mark [13] stands for this setting: Homo sapiens, dark, read-out: IC50 dark.

SMILES strings stand for the structures. Where two headings read alike, the source gives them in different places.

One may read the IC50 as the point on the concentration scale where inhibition reaches its midpoint. Turning to `C1=Cc2nc1c(-c1ccccc1)c1nc(c(-c3ccccc3)c3ccc([nH]3)c(-c3ccccc3)c3ccc([nH]3)c2-c2ccccc2)C=C1` [H2TPP, tetraphenylporphyrin, reference compound], the “tumor growth inhibition effect (MCTS volume)” value in the data set on HeLa MCTS [1] was “do not show any inhibitory effect”. Besides, the IC50 was above 100 µM in the data set on HeLa MCTS [2] (setting [13]); above 100 µM in the data set with HeLa MCTS [2] (Homo sapiens, light or radiation study, 1P 500 nm, read-out: IC50 1P irradiation (500 nm, 10 J cm-2)); above 100 µM in the data set on HeLa MCTS [2] (Homo sapiens, light or radiation study, 2P 800 nm, section interval 5 μm, read-out: IC50 2P irradiation (800 nm, 10 J cm-2)).

`C=CC1=C(C)c2cc3[nH]c(cc4nc(cc5[nH]c(cc1n2)c(C)c5CCC(=O)O)C(CCC(=O)O)=C4C)c(C)c3C=C` [PpIX, Protoporphyrin IX, reference compound]: the “photostability (change of absorption spectra upon irradiation)” value in data set [3] is recorded as “drastically changed”. Moreover, the IC50 in [4] (Homo sapiens, 10 min, 480 nm, read-out: IC50 480 nm (10 min, 3.1 J cm-2)) is 2.5 µM; in [4] (Homo sapiens, 40 min, 540 nm, read-out: IC50 540 nm (40 min, 9.5 J cm-2)), 2.1 µM; in data set [4] (setting [13]), above 100 µM; in [5] it was 3.8 µM; in data set [6] it was 3.5 µM; in data set [7], 3.6 µM. In addition, the IC50 in [8] (Homo sapiens, U373 MG, 10 min, read-out: IC50 480 nm (10 min, 3.1 J cm-2)) is 3.3 µM; in data set [8] (Homo sapiens, U373 MG, read-out: IC50 dark), above 100 µM; in data set [9] (Homo sapiens, RPE-1, 40 min, read-out: IC50 540 nm (40 min, 9.5 J cm-2)) it was 3.3 µM; in data set [9] (Homo sapiens, RPE-1, read-out: IC50 dark), above 100 µM; in data set [10] (Mus musculus, CT26, 40 min, read-out: IC50 540 nm (40 min, 9.5 J cm-2)), 4.1 µM; in [10] (Mus musculus, CT26, read-out: IC50 dark), above 100 µM. Further, the “PI (480 nm)” value in data set [4] (dark vs 480 nm) was above 40.0; in data set [8] (U373, dark vs 480 nm), above 30.3; in data set [9] (RPE-1, dark vs 480 nm) it was above 26.3; in [10] (CT-26, dark vs 480 nm) it was above 28.6. Further, the “PI (540 nm)” value in [4] (dark vs 540 nm) is listed as above 47.6; in [8] (U373, dark vs 540 nm), above 27.8; in data set [9] (RPE-1, dark vs 540 nm), above 30.3; in data set [10] (CT-26, dark vs 540 nm), above 24.4.

With `O=C([O-])c1c(Cl)c(Cl)c(Cl)c(Cl)c1-c1c2cc(I)c(=O)c(I)c-2oc2c(I)c([O-])c(I)cc12.[Na+].[Na+]` [Rose Bengal], the “Φ, singlet oxygen quantum yield of the reference” value in [11] was 76%.

As for `[Cl-].[Cl-].[Ru+2].c1ccc(-c2ccccn2)nc1.c1ccc(-c2ccccn2)nc1.c1ccc(-c2ccccn2)nc1` [[Ru(2,2′-bipyridine)3]Cl2], in data set [12], the “Φem, luminescence quantum yield of the reference” value is reported as 5.9%.

For `N.N.[Cl][Pt][Cl]` [cisplatin, reference compound], the IC50 in data set [4] (dark, read-out: IC50 dark) worked out at 10.5 µM; in the data set with HeLa MCTS [2] (dark, read-out: IC50 dark), 18.6 ± 1.3 µM; in data set [8] (read-out: IC50 dark, U373, dark, 1-3 as chloride salts), 17.6 µM; in data set [9] (read-out: IC50 dark, RPE-1, dark, 1-3 as chloride salts) it was 29.3 µM; in [10] (read-out: IC50 dark, CT-26, dark, 1-3 as chloride salts), 6.5 µM. The “tumor growth inhibition effect (MCTS volume)” value in the data set with HeLa MCTS [1] is recorded as “weak effect on the tumor growth”.

Values taken from paper PMC7320011, “Rationally designed ruthenium complexes for 1- and 2-photon photodynamic therapy” (Nature Communications, 2020).
